# Experimental data reported in US20240000872A1, “NOVEL BACTERIOPHAGE THAT LYSES ACINETOBACTER GENUS BACTERIA HAVING RESISTANCE TO ANTIBIOTICS” (priority 2020, published 2024).
# Test system: Acinetobacter baumannii strains
# Assay: Antibiotic susceptibility test (CLSI disk diffusion test method, read per CLSI 2016); as to antibiotic susceptibility S/I/R: key: ‘S’ means susceptible; ‘I’ means intermediate; ‘R’ means resistant; as to susceptibility category (S/I/R): key: ‘S’ means susceptible; ‘I’ means intermediate; ‘R’ means resistant
# Format: cell-based
# Set-up: antibiotic susceptibility test value / susceptibility test value (number given before S/I/R) / antibiotic susceptibility value: unit not given here
substance,measurement,setting,value
piperacillin-tazobactam,antibiotic susceptibility value,host strain YMC16/01/R353,128
same,susceptibility category (S/I/R),host strain YMC16/01/R353,R
same,susceptibility test value (number given before S/I/R),host strain YMC16/01/R353,128
same,antibiotic susceptibility S/I/R,host strain YMC16/01/R380,R
same,antibiotic susceptibility value,host strain YMC16/01/R380,128
same,susceptibility category (S/I/R),host strain YMC16/01/R380,R
same,susceptibility test value (number given before S/I/R),host strain YMC16/01/R380,128
same,antibiotic susceptibility S/I/R,host strain YMC16/01/R397,R
same,antibiotic susceptibility value,host strain YMC16/01/R397,128
same,susceptibility category (S/I/R),host strain YMC16/01/R397,R
same,susceptibility test value (number given before S/I/R),host strain YMC16/01/R397,128
same,antibiotic susceptibility S/I/R,host strain YMC16/01/R405,R
same,antibiotic susceptibility value,host strain YMC16/01/R405,128
same,susceptibility category (S/I/R),host strain YMC16/01/R405,R
same,susceptibility test value (number given before S/I/R),host strain YMC16/01/R405,128
same,antibiotic susceptibility S/I/R,host strain YMC16/03/R4461,R
same,antibiotic susceptibility value,host strain YMC16/03/R4461,128
same,susceptibility category (S/I/R),host strain YMC16/03/R4461,R
same,susceptibility test value (number given before S/I/R),host strain YMC16/03/R4461,128
same,antibiotic susceptibility S/I/R,host strain YMC16/05/R2210,R
same,antibiotic susceptibility value,host strain YMC16/05/R2210,128
same,susceptibility category (S/I/R),host strain YMC16/05/R2210,R
same,susceptibility test value (number given before S/I/R),host strain YMC16/05/R2210,128
same,antibiotic susceptibility S/I/R,host strain YMC16/07/R2512,R
same,antibiotic susceptibility value,host strain YMC16/07/R2512,128
same,susceptibility category (S/I/R),host strain YMC16/07/R2512,R
same,susceptibility test value (number given before S/I/R),host strain YMC16/07/R2512,128
same,antibiotic susceptibility S/I/R,host strain YMC16/09/R2471,R
same,antibiotic susceptibility value,host strain YMC16/09/R2471,128
same,susceptibility category (S/I/R),host strain YMC16/09/R2471,R
same,susceptibility test value (number given before S/I/R),host strain YMC16/09/R2471,128
same,antibiotic susceptibility S/I/R,host strain YMC16/10/R2537,R
same,antibiotic susceptibility value,host strain YMC16/10/R2537,128
same,susceptibility category (S/I/R),host strain YMC16/10/R2537,R
same,susceptibility test value (number given before S/I/R),host strain YMC16/10/R2537,128
same,antibiotic susceptibility S/I/R,host strain YMC16/12/B11422,R
same,antibiotic susceptibility value,host strain YMC16/12/B11422,128
same,susceptibility category (S/I/R),host strain YMC16/12/B11422,R
same,susceptibility test value (number given before S/I/R),host strain YMC16/12/B11422,128
same,antibiotic susceptibility S/I/R,host strain YMC16/12/B11449,R
same,antibiotic susceptibility value,host strain YMC16/12/B11449,128
same,susceptibility category (S/I/R),host strain YMC16/12/B11449,R
same,susceptibility test value (number given before S/I/R),host strain YMC16/12/B11449,128
same,antibiotic susceptibility S/I/R,host strain YMC16/12/B13325,R
same,antibiotic susceptibility value,host strain YMC16/12/B13325,128
same,susceptibility category (S/I/R),host strain YMC16/12/B13325,R
same,susceptibility test value (number given before S/I/R),host strain YMC16/12/B13325,128
same,antibiotic susceptibility S/I/R,host strain YMC16/12/P503,R
same,antibiotic susceptibility value,host strain YMC16/12/P503,128
same,susceptibility category (S/I/R),host strain YMC16/12/P503,R
same,susceptibility test value (number given before S/I/R),host strain YMC16/12/P503,128
same,antibiotic susceptibility S/I/R,host strain YMC16/12/R4637,R
same,antibiotic susceptibility value,host strain YMC16/12/R4637,128
same,susceptibility category (S/I/R),host strain YMC16/12/R4637,R
same,susceptibility test value (number given before S/I/R),host strain YMC16/12/R4637,128
same,antibiotic susceptibility S/I/R,host strain YMC17/01/B8053,R
same,antibiotic susceptibility value,host strain YMC17/01/B8053,128
same,susceptibility category (S/I/R),host strain YMC17/01/B8053,R
same,susceptibility test value (number given before S/I/R),host strain YMC17/01/B8053,128
same,antibiotic susceptibility S/I/R,host strain YMC17/01/B10087,R
same,antibiotic susceptibility value,host strain YMC17/01/B10087,128
same,susceptibility category (S/I/R),host strain YMC17/01/B10087,R
same,susceptibility test value (number given before S/I/R),host strain YMC17/01/B10087,128
same,antibiotic susceptibility S/I/R,host strain YMC17/01/B12075,R
same,antibiotic susceptibility value,host strain YMC17/01/B12075,128
same,susceptibility category (S/I/R),host strain YMC17/01/B12075,R
same,susceptibility test value (number given before S/I/R),host strain YMC17/01/B12075,128
same,antibiotic susceptibility S/I/R,host strain YMC17/01/B13454,R
same,antibiotic susceptibility value,host strain YMC17/01/B13454,128
same,susceptibility category (S/I/R),host strain YMC17/01/B13454,R
same,susceptibility test value (number given before S/I/R),host strain YMC17/01/B13454,128
same,antibiotic susceptibility S/I/R,host strain YMC17/01/P518,R
same,antibiotic susceptibility value,host strain YMC17/01/P518,128
same,susceptibility category (S/I/R),host strain YMC17/01/P518,R
same,susceptibility test value (number given before S/I/R),host strain YMC17/01/P518,128
same,antibiotic susceptibility S/I/R,host strain YMC17/01/R2812,R
same,antibiotic susceptibility value,host strain YMC17/01/R2812,128
same,susceptibility category (S/I/R),host strain YMC17/01/R2812,R
same,susceptibility test value (number given before S/I/R),host strain YMC17/01/R2812,128
same,antibiotic susceptibility S/I/R,host strain YMC17/02/B14,R
same,antibiotic susceptibility value,host strain YMC17/02/B14,128
same,susceptibility category (S/I/R),host strain YMC17/02/B14,R
same,susceptibility test value (number given before S/I/R),host strain YMC17/02/B14,128
same,antibiotic susceptibility S/I/R,host strain YMC17/02/B87,R
same,antibiotic susceptibility value,host strain YMC17/02/B87,128
same,susceptibility category (S/I/R),host strain YMC17/02/B87,R
same,susceptibility test value (number given before S/I/R),host strain YMC17/02/B87,128
same,antibiotic susceptibility S/I/R,host strain YMC17/02/B721,R
same,antibiotic susceptibility value,host strain YMC17/02/B721,128
same,susceptibility category (S/I/R),host strain YMC17/02/B721,R
same,susceptibility test value (number given before S/I/R),host strain YMC17/02/B721,128
same,antibiotic susceptibility S/I/R,host strain YMC17/02/B4039,R
same,antibiotic susceptibility value,host strain YMC17/02/B4039,128
same,susceptibility category (S/I/R),host strain YMC17/02/B4039,R
same,susceptibility test value (number given before S/I/R),host strain YMC17/02/B4039,128
same,antibiotic susceptibility S/I/R,host strain YMC17/02/B4520,R
same,antibiotic susceptibility value,host strain YMC17/02/B4520,128
same,susceptibility category (S/I/R),host strain YMC17/02/B4520,R
same,susceptibility test value (number given before S/I/R),host strain YMC17/02/B4520,128
same,antibiotic susceptibility S/I/R,host strain YMC17/02/B4864,S
same,antibiotic susceptibility value,host strain YMC17/02/B4864,4
same,susceptibility category (S/I/R),host strain YMC17/02/B4864,S
same,susceptibility test value (number given before S/I/R),host strain YMC17/02/B4864,4
same,antibiotic susceptibility S/I/R,host strain YMC17/02/B8414,R
same,antibiotic susceptibility value,host strain YMC17/02/B8414,128
same,susceptibility category (S/I/R),host strain YMC17/02/B8414,R
same,susceptibility test value (number given before S/I/R),host strain YMC17/02/B8414,128
same,antibiotic susceptibility S/I/R,host strain YMC17/02/P523,R
same,antibiotic susceptibility value,host strain YMC17/02/P523,128
same,susceptibility category (S/I/R),host strain YMC17/02/P523,R
same,susceptibility test value (number given before S/I/R),host strain YMC17/02/P523,128
same,antibiotic susceptibility S/I/R,host strain YMC17/02/R541,R
same,antibiotic susceptibility value,host strain YMC17/02/R541,128
same,susceptibility category (S/I/R),host strain YMC17/02/R541,R
same,susceptibility test value (number given before S/I/R),host strain YMC17/02/R541,128
same,antibiotic susceptibility S/I/R,host strain YMC17/02/R2392,R
same,antibiotic susceptibility value,host strain YMC17/02/R2392,128
same,susceptibility category (S/I/R),host strain YMC17/02/R2392,R
same,susceptibility test value (number given before S/I/R),host strain YMC17/02/R2392,128
same,antibiotic susceptibility S/I/R,host strain YMC17/03/B4730,R
same,antibiotic susceptibility value,host strain YMC17/03/B4730,128
same,susceptibility category (S/I/R),host strain YMC17/03/B4730,R
same,susceptibility test value (number given before S/I/R),host strain YMC17/03/B4730,128
same,antibiotic susceptibility S/I/R,host strain YMC17/03/B5000,R
same,antibiotic susceptibility value,host strain YMC17/03/B5000,128
same,susceptibility category (S/I/R),host strain YMC17/03/B5000,R
same,susceptibility test value (number given before S/I/R),host strain YMC17/03/B5000,128
same,antibiotic susceptibility S/I/R,host strain YMC17/03/P971,R
same,antibiotic susceptibility value,host strain YMC17/03/P971,128
same,susceptibility category (S/I/R),host strain YMC17/03/P971,R
same,susceptibility test value (number given before S/I/R),host strain YMC17/03/P971,128
same,antibiotic susceptibility S/I/R,host strain YMC17/03/R348,R
same,antibiotic susceptibility value,host strain YMC17/03/R348,128
same,susceptibility category (S/I/R),host strain YMC17/03/R348,R
same,susceptibility test value (number given before S/I/R),host strain YMC17/03/R348,128
same,antibiotic susceptibility S/I/R,host strain YMC17/03/R585,R
same,antibiotic susceptibility value,host strain YMC17/03/R585,128
same,susceptibility category (S/I/R),host strain YMC17/03/R585,R
same,susceptibility test value (number given before S/I/R),host strain YMC17/03/R585,128
same,antibiotic susceptibility S/I/R,host strain YMC17/03/R1888,R
same,antibiotic susceptibility value,host strain YMC17/03/R1888,128
same,susceptibility category (S/I/R),host strain YMC17/03/R1888,R
same,susceptibility test value (number given before S/I/R),host strain YMC17/03/R1888,128
same,antibiotic susceptibility S/I/R,host strain YMC17/03/R3279,R
same,antibiotic susceptibility value,host strain YMC17/03/R3279,128
same,susceptibility category (S/I/R),host strain YMC17/03/R3279,R
same,susceptibility test value (number given before S/I/R),host strain YMC17/03/R3279,128
same,antibiotic susceptibility S/I/R,host strain YMC17/03/R4077,R
same,antibiotic susceptibility value,host strain YMC17/03/R4077,128
same,susceptibility category (S/I/R),host strain YMC17/03/R4077,R
same,susceptibility test value (number given before S/I/R),host strain YMC17/03/R4077,128
same,antibiotic susceptibility S/I/R,host strain YMC17/03/R4607,R
same,antibiotic susceptibility value,host strain YMC17/03/R4607,128
same,susceptibility category (S/I/R),host strain YMC17/03/R4607,R
same,susceptibility test value (number given before S/I/R),host strain YMC17/03/R4607,128
same,antibiotic susceptibility S/I/R,host strain YMC17/04/R488,R
same,antibiotic susceptibility value,host strain YMC17/04/R488,128
same,susceptibility category (S/I/R),host strain YMC17/04/R488,R
same,susceptibility test value (number given before S/I/R),host strain YMC17/04/R488,128
same,antibiotic susceptibility S/I/R,host strain YMC17/04/R640,R
same,antibiotic susceptibility value,host strain YMC17/04/R640,128
same,susceptibility category (S/I/R),host strain YMC17/04/R640,R
same,susceptibility test value (number given before S/I/R),host strain YMC17/04/R640,128
same,antibiotic susceptibility S/I/R,host strain YMC/17/05/R1095,R
same,antibiotic susceptibility value,host strain YMC/17/05/R1095,128
same,susceptibility category (S/I/R),host strain YMC/17/05/R1095,R
same,susceptibility test value (number given before S/I/R),host strain YMC/17/05/R1095,128
